The record followed here is the supplement of paper PMC10627819.

Assay [1] relates to S. aureus DSM 20231.
Assay [2] has as its system S. aureus Newman.
Assay [3] relates to S. pneumoniae D39V.
The test system of assay [4] is S. pneumoniae D39V. Briefly: fitness (endpoint OD595 vs no drug) (fraction); higher = more growth. An outline of the steps:
(§1)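 Bacterial fitness was scored as optical density at the stationary-phase transition relative to the robust mean of no-drug control wells. Scores are capped at 1. The growth data were OD595 readings every 30 min for 14 h at 37 °C, background-subtracted against the first reading, from 384-well plates inoculated at OD595 0.01 in TSB, LB Lennox or CY.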

The subject of assay [5] is S. aureus DSM 20231. Described as above. The method, boiled down: as §1
Assay [6] concerns B. subtilis 168. Described as above. The method, boiled down:
as §1

Assay [7] deals with S. aureus Newman. Described as above. The method, boiled down: as §1
Assay [8] has as its system B. subtilis 168.

Converted amounts (≈) assume the structure as drawn.

What is called MIC is the smallest concentration in the dilution series that meets the test's criterion for growth inhibition. As to `CC(=O)OC[C@H]1O[C@@H]([S-])[C@H](OC(C)=O)[C@@H](OC(C)=O)[C@@H]1OC(C)=O.CCP(CC)CC.[Au+]` [Auranofin], the MIC in assay [1] and in assay [2] was 0.5 µg/mL each time.

For the compound `O=C(N[C@H](CO)[C@H](O)c1ccc([N+](=O)[O-])cc1)C(Cl)Cl` [Chloramphenicol], the results for the MIC in assay [3], in assay [1] and in assay [2] were 2 µg/mL (≈ 6.19 µM), 3.5 µg/mL (≈ 10.8 µM) and 3 µg/mL (≈ 9.28 µM), respectively. The fitness in assay [4] (0.375 µg/mL) amounted to 0.893; in assay [4] (0.75 µg/mL) it was 0.722; in assay [4] (1.5 µg/mL) it was 0.407; in assay [5] (0.75 µg/mL), 0.878; in assay [5] (1.5 µg/mL), 0.711; in assay [5] (3 µg/mL), 0.0899. The fitness is 0.834 in assay [6] (0.5 µg/mL); 0.659 in assay [6] (1 µg/mL); 0.804 in assay [7] (0.75 µg/mL); 0.514 in assay [7] (1.5 µg/mL); 0.126 in assay [7] (3 µg/mL).

`CC[C@H]1OC(=O)[C@H](C)[C@@H](O[C@H]2C[C@@](C)(OC)[C@@H](O)[C@H](C)O2)[C@H](C)[C@@H](O[C@@H]2O[C@H](C)C[C@H](N(C)C)[C@H]2O)[C@](C)(OC)C[C@@H](C)C(=O)[C@H](C)[C@@H](O)[C@]1(C)O` [Clarithromycin]: the values for the minimal inhibitory concentration (MIC) in assay [3], in assay [1] and in assay [2] were 0.5 µg/mL (≈ 0.668 µM), 0.234 µg/mL (≈ 0.313 µM) and 0.5 µg/mL (≈ 0.668 µM), respectively. For the same compound, the fitness in assay [4] (0.0625 µg/mL) was found to be 0.568; in assay [4] (0.125 µg/mL), 0.346; in assay [4] (0.25 µg/mL), 0.148; in assay [5] (0.0585 µg/mL), 0.94; in assay [5] (0.117 µg/mL) it was 0.691; in assay [5] (0.234 µg/mL), 0.0857.

Turning to `CCC[C@@H]1C[C@@H](C(=O)N[C@@H]([C@H]2O[C@H](SC)[C@H](O)[C@@H](O)[C@H]2O)[C@H](C)Cl)N(C)C1` [Clindamycin], the MIC in assay [3] came out at 0.125 µg/mL (≈ 0.294 µM); in assay [1] it was 0.125 µg/mL (≈ 0.294 µM); in assay [8] it was 1 µg/mL (≈ 2.35 µM); in assay [2] it was 0.125 µg/mL (≈ 0.294 µM). Further, the fitness turned out to be 0.869 in assay [4] (0.015 µg/mL); 0.682 in assay [4] (0.03 µg/mL); 0.456 in assay [4] (0.06 µg/mL); 0.747 in assay [5] (0.0312 µg/mL); 0.246 in assay [5] (0.0625 µg/mL); 0.0653 in assay [5] (0.125 µg/mL). Further, the fitness in assay [6] (0.0625 µg/mL) worked out at 0.596; in assay [6] (0.125 µg/mL), 0.432; in assay [6] (0.25 µg/mL), 0.393; in assay [7] (0.0312 µg/mL) it was 0.775; in assay [7] (0.0625 µg/mL), 0.432; in assay [7] (0.125 µg/mL), 0.108.

In the case of `N[C@@H]1CONC1=O` [Cycloserine D], the MIC in assay [3] came to 8.75 µg/mL (≈ 85.7 µM); in assay [1] it was 1.5 µg/mL (≈ 14.7 µM); in assay [8], 0.5 µg/mL (≈ 4.9 µM); in assay [2], 1.5 µg/mL (≈ 14.7 µM). Also, the fitness in assay [4] (2.188 µg/mL) is 0.872; in assay [4] (4.375 µg/mL) it was 0.81; in assay [4] (8.75 µg/mL) it was 0.533; in assay [5] (0.375 µg/mL) it was at least 1; in assay [5] (0.75 µg/mL) it was at least 1; in assay [5] (1.5 µg/mL), at least 1. The fitness in assay [6] (0.125 µg/mL) was 0.963; in assay [6] (0.25 µg/mL), 0.948; in assay [6] (0.5 µg/mL), 0.966; in assay [7] (0.375 µg/mL) it was at least 1; in assay [7] (0.75 µg/mL), at least 1; in assay [7] (1.5 µg/mL), 0.983.

For `O=C(O[C@@H]1Cc2c(O)cc(O)cc2O[C@@H]1c1cc(O)c(O)c(O)c1)c1cc(O)c(O)c(O)c1` [EGCG], the MIC amounted to 400 µg/mL (≈ 873 µM) in assay [3], 50 µg/mL (≈ 109 µM) in assay [1], 50 µg/mL (≈ 109 µM) in assay [8] and 50 µg/mL (≈ 109 µM) in assay [2]. Further, the fitness in assay [4] (12.5 µg/mL) stood at 0.946; in assay [4] (25 µg/mL), 0.964; in assay [4] (50 µg/mL), 0.987; in assay [5] (12.5 µg/mL) it was 0.841; in assay [5] (25 µg/mL), 0.776; in assay [5] (50 µg/mL) it was 0.795. Moreover, the fitness in assay [6] (6.25 µg/mL) was found to be 0.91; in assay [6] (12.5 µg/mL), 0.709; in assay [6] (25 µg/mL), 0.34; in assay [7] (12.5 µg/mL), 0.778; in assay [7] (25 µg/mL), 0.714; in assay [7] (50 µg/mL), 0.671.

Turning to `CC(=O)O[C@H]1C[C@@]2(C)[C@@H](C[C@@H](O)[C@H]3[C@@]4(C)CC[C@@H](O)[C@@H](C)[C@@H]4CC[C@@]32C)/C1=C(\CCC=C(C)C)C(=O)O` [Fusidic acid], the values for the MIC in assay [3], in assay [8] and in assay [2] were 4 µg/mL (≈ 7.74 µM), 0.5 µg/mL (≈ 0.968 µM) and 0.139 µg/mL (≈ 0.269 µM), respectively.

On to `C[C@@H](O)[C@H]1C(=O)N2C(C(=O)O)=C(SCCNC=N)C[C@H]12` [Imipenem], for which the MIC came to 0.062 µg/mL (≈ 0.207 µM) in assay [3] and 0.5 µg/mL (≈ 1.67 µM) in assay [8]. In addition, the fitness amounted to 0.961 in assay [4] (0.005 µg/mL); 0.95 in assay [4] (0.01 µg/mL); 0.943 in assay [4] (0.02 µg/mL); 0.857 in assay [6] (0.0625 µg/mL); 0.751 in assay [6] (0.125 µg/mL); 0.466 in assay [6] (0.25 µg/mL).

As for `CCC[C@@H]1C[C@@H](C(=O)N[C@@H]([C@H]2O[C@H](SC)[C@H](O)[C@@H](O)[C@H]2O)[C@@H](C)O)N(C)C1` [Lincomycin], the figures for the MIC in assay [3], in assay [1] and in assay [2] were 1.6 µg/mL (≈ 3.94 µM), 0.4 µg/mL (≈ 0.984 µM) and 0.4 µg/mL (≈ 0.984 µM), respectively. The fitness in assay [4] (0.2 µg/mL) was 0.648; in assay [4] (0.4 µg/mL), 0.432; in assay [4] (0.8 µg/mL) it was 0.211; in assay [5] (0.1 µg/mL), 0.932; in assay [5] (0.2 µg/mL), 0.767; in assay [5] (0.4 µg/mL) it was 0.315. Also, the fitness in assay [6] (0.1 µg/mL) was 0.862; in assay [6] (0.2 µg/mL), 0.823; in assay [6] (0.4 µg/mL), 0.852; in assay [6] (0.8 µg/mL), 0.878; in assay [6] (1.6 µg/mL), 0.854.
